This note sets out measurements from patent US20070265164A1, “Active Substances for Increasing Pathogenic Defense in Plants and Methods for the Detection Thereof” (Bayer Cropscience GmbH, priority 2004, published 2007).

The test system of assay [1] is Contig2990_at, Chitinase (EC 3.2.1.14). The assay can be described thus: GEP, barley DNA chip, probe set 5.1. It is filed as in vivo. On the set-up: fold induction: dose or concentration left out as unconfirmed. Conditions: for fold induction / fold induction at 150 g/ha: Hordeum vulgare, topical, read-out: Expression value, 5.1 Contig2990_at; for fold induction: rates of Table 1 (S7 500); for fold induction at 150 g/ha: 6 h. The procedure: (§1) Barley plants (cv. Baronesse) were grown in compost-filled pots (diameter: 10 cm) for 10 days in a controlled-environment cabinet under defined light, humidity and temperature conditions (white light, 70% atmospheric humidity, 24° C.). At the time of spray application, the seedlings were approximately 15 cm in size. The test substances selected in this example were molecules which differ markedly in their structure and which have a well documented pronounced safener effect, and other molecules which are known from the literature to have an effect on plant stress and pathogen tolerance (Table 1). The substances were prepared as stock solutions in DMSO (dimethyl sulfoxide) at c=10 mg/ml). This was used for preparing dilutions in water supplemented with 0.2% Agrotin (comprises polyvinyl alcohol, silicones, polysaccharides and pH regulators, manufacturer: Bayer CropScience AG, Monheim, Germany), as wetter, to give the application rates shown in the table. The amount of liquid for the spray application was 800 μl per pot, corresponding to 800 l/ha. For each 800 μl of spray mixture, 16 μl of EC premix: diacetone alcohol=1:6 were additionally added as formulation auxiliaries. The substances listed in Table 1 were applied to the leaves by means of a pneumatic spray pistol. Each substance was sprayed as 2 dosages, and all experiments were carried out as replicates (2 pots per substance). Sprayings with blank formulation without active ingredient were carried out as controls. After 6 hours, the leaves were harvested, frozen in liquid nitrogen and stored at −80° C. until further use. The labeled RNA probes for the DNA chip hybridization were prepared as described in the protocols (Expression Analysis, Technical Manual) from Affymetrix (Affymetrix Inc., 3380 Central Expressway, Santa Clara, Calif., USA). First, total RNA was isolated from in each case 500 mg of the harvested leaves. In each case 10 μg of total RNA was used for the first-strand and second-strand cDNA synthesis. The cDNA was amplified with T7 polymerase and simultaneously labeled with biotin-UTP. In each case, 20 μg of this biotinylated cDNA was employed for the hybridization of the barley genome array (Gene Chip Barleyl, order No.: 511012) from Affymetrix. This DNA microarray comprises DNA sequences of 22 840 genes which are composed of a total of 400 000 EST sequences. Thereafter, the DNA microarrays were washed in the Affymetrix Fluidics Station, stained with streptavidin/phycoerythrin (Molecular Probes, P/N S-866) and scanned with the matching Agilent Laser Scanner (Agilent Gene Array Scanner). The fluorescent data obtained were analyzed with the software Microarray Suite 5 from Affymetrix. After the quality had been checked, all DNA chip analyses were stored in a database. To determine the relative expression values for genes (induction factors, repression factors), test and control chips were compared with each other, and the scoring function set by the Affymetrix software was used as the basis. The 2 biological replications of one experiment were compared in each case with 2 control chips (blank formulation), and the 4 expression values obtained for each gene were used for calculating the median. These medians are shown in the results tables as induction factors. Similarity comparisons of expression profiles from different experiments and cluster analyses were carried out using the software GeneMaths 1.5 from Applied Maths (Applied Maths, Keistraat 120, 9830 Sint-Martens-Latem, Belgium).
(§2) Gene groups from specific metabolic pathways and signal transduction chains were put together by key word search in the annotations, of the genes, which were also provided by Affymetrix, and by Blast analyses (homology comparisons) of the DNA target sequences, i.e. of the positive sequence (identified on the basis of a modified expression profile) identified on the DNA chip, using gene sequences from other organisms, preferably plant organisms, with characterized functions. […]

The subject of assay [2] is Contig2330_x_at, 12-oxophytodienoic acid reductase. The assay can be described thus: GEP, barley DNA chip, probe set 1.19. It is filed as in vivo. Further details: fold induction: dose or concentration left out as unconfirmed. The following applies: for fold induction / fold induction at 150 g/ha: Hordeum vulgare, topical, read-out: Expression value, 1.19 Contig2330_x_at; for fold induction: rates of Table 1 (S7 500); for fold induction at 150 g/ha: 6 h. On the procedure: as §1, §2

Assay [3] has as its system Contig10030_at, Putative lipase homolog. The assay can be described thus: GEP, barley DNA chip, probe set 1.13. The assay is classed as in vivo. The following applies: for fold induction / fold induction at 150 g/ha: Hordeum vulgare, topical, read-out: Expression value, 1.13 Contig10030_at; for fold induction: rates of Table 1 (S7 500); for fold induction at 150 g/ha: 6 h. Further details: fold induction: dose or concentration left out as unconfirmed. The procedure: as §1, §2

In assay [4] the test system is Contig2118_at, Peroxidase (EC 1.11.1.7), pathogen-induced. The assay can be described thus: GEP, barley DNA chip, probe set 4.1. The assay is classed as in vivo. Further details: fold induction: dose or concentration left out as unconfirmed. Conditions: for fold induction / fold induction at 150 g/ha: Hordeum vulgare, topical, read-out: Expression value, 4.1 Contig2118_at; for fold induction: rates of Table 1 (S7 500); for fold induction at 150 g/ha: 6 h. The procedure:
as §1, §2

The test system of assay [5] is HV_Ceb0020D05r2_s_at, Allene oxide cyclase. The assay can be described thus: GEP, barley DNA chip, probe set 1.6. It is filed as in vivo. Further details: fold induction: dose or concentration left out as unconfirmed. Conditions: Hordeum vulgare, topical, read-out: Expression value, 1.6 HV_Ceb0020 D05r2_s_at; for fold induction: barley leaves 6 h after spray application, rates of Table 1 (S7 500), median induction factor vs control; for fold induction at 150 g/ha: 6 h. On the procedure:
as §1, §2

Assay [6] concerns aphids. The assay can be described thus: Plant-free Sachez test, direct toxicity. It is filed as in vivo. An excerpt:
A direct toxicity of isoxadifen-ethyl (S3) against aphids was not detected in the plant-free Sachez test.

In assay [7] the test system is jasmonic acid biosynthesis. The assay can be described thus: GEP, induction pattern of the jasmonic acid biosynthesis genes. It is filed as in vivo, barley. The following applies: compared with the other safeners and resistance inductors. On the procedure:
Barley plants (cv. Baronesse) were grown in compost-filled pots (diameter: 10 cm) for 10 days in a controlled-environment cabinet under defined light, humidity and temperature conditions (white light, 70% atmospheric humidity, 24° C.). At the time of spray application, the seedlings were approximately 15 cm in size. The test substances selected in this example were molecules which differ markedly in their structure and which have a well documented pronounced safener effect, and other molecules which are known from the literature to have an effect on plant stress and pathogen tolerance (Table 1). The substances were prepared as stock solutions in DMSO (dimethyl sulfoxide) at c=10 mg/ml). This was used for preparing dilutions in water supplemented with 0.2% Agrotin (comprises polyvinyl alcohol, silicones, polysaccharides and pH regulators, manufacturer: Bayer CropScience AG, Monheim, Germany), as wetter, to give the application rates shown in the table. The amount of liquid for the spray application was 800 μl per pot, corresponding to 800 l/ha. For each 800 μl of spray mixture, 16 μl of EC premix: diacetone alcohol=1:6 were additionally added as formulation auxiliaries. The substances listed in Table 1 were applied to the leaves by means of a pneumatic spray pistol. […] The fluorescent data obtained were analyzed with the software Microarray Suite 5 from Affymetrix. […]

[8] abbreviates: barley leaves 6 h after spray application, median induction factor vs control.
Setting [9] is: barley leaves 6 h after spray application, rates of Table 1 (150 g a.i./ha, S7 500), median induction factor vs control.

For the molecule `O=C(O)c1cc(Cl)cc(Cl)c1O` [S10], the fold induction in assay [1] (setting [8]), in assay [2] (setting [8]), in assay [3] (setting [8]), in assay [4] (setting [8]) and in assay [5] was 1 each time.

With `CCCCCC(C)OC(=O)COc1ccc(Cl)c2cccnc12` (stereo not drawn) [S4, Cloquintocet-mexyl], the fold induction in assay [1] (setting [8]) was 1; in assay [2] (setting [8]) it was 2.83; in assay [3] (setting [8]) it was 1; in assay [4] (setting [8]), 1; in assay [5], 1.

For `NC(=O)c1ccc(C(F)(F)F)nc1O` [S6], the fold induction in assay [1] (setting [8]) was found to be 1; in assay [2] (setting [8]), 2.55; in assay [3] (setting [8]), 1; in assay [4] (setting [8]), 2.2; in assay [5], 1.

As for `O=C(NO)c1ccccc1O` [S7, Salicyl hydroxamate], the “Expression value, 5.1 Contig2990_at” value in assay [1] (setting [9]) came to 1.00 x times. Besides, the “Expression value, 1.19 Contig2330_x_at” value in assay [2] (setting [9]) stood at 1.00 x times. Besides, the “Expression value, 1.13 Contig10030_at” value in assay [3] (setting [9]) came to 1.00 x times. For the same molecule, in assay [4] (setting [9]), the “Expression value, 4.1 Contig2118_at” value came to 1.00 x times.

For `O=C(O)C1=NN(c2ccc(Cl)cc2Cl)C(c2ccc(F)cc2)C1` (stereo not drawn) [S2], the fold induction in assay [1] (setting [8]) was 1; in assay [2] (setting [8]) it was 2.39; in assay [3] (setting [8]), 1; in assay [4] (setting [8]) it was 1; in assay [5], 1.

For `CCOC(=O)C1=NOC(c2ccccc2)(c2ccccc2)C1` [S3, Isoxadifen-ethyl], the “Direct toxicity against aphids” value in assay [6] is on record as “not detected”. Moreover, the fold induction at 150 g/ha is 2.77 in assay [1]; 1 in assay [2]; 2.25 in assay [3]; 4.86 in assay [4]; 3.68 in assay [5]. In addition, the “Effect on jasmonic acid biosynthesis (induction pattern)” value in assay [7] is listed as “most pronounced”.

Turning to `CSC(=O)c1cccc2nnsc12` [S8, Acibenzolar-S-methyl], the fold induction in assay [1] (setting [8]), in assay [2] (setting [8]), in assay [3] (setting [8]), in assay [4] (setting [8]) and in assay [5] was 1 in each case.

As to `COC(=O)C1=NN(c2ccc(Cl)cc2Cl)C(C)(C(=O)OC)C1` (stereo not drawn) [S1, Mefenpyr-dimethyl], the fold induction in assay [1] (setting [8]) was determined as 4.17; in assay [2] (setting [8]) it was 4.03; in assay [3] (setting [8]) it was 1; in assay [4] (setting [8]), 8.69; in assay [5], 1.

On to `CCOC(=O)C(Oc1ccc(Cl)c2cccnc12)C(=O)OCC` [S5], for which the fold induction turned out to be 1 in assay [1] (setting [8]); 1 in assay [2] (setting [8]); 1 in assay [3] (setting [8]); 2.33 in assay [4] (setting [8]); 1 in assay [5].

Consider `O=C(O)c1cc(Cl)nc(Cl)c1` [S9], for which the fold induction at 150 g/ha is 2.39 in assay [1]; 1 in assay [2]; 1 in assay [3]; 1 in assay [4]; 1 in assay [5].
